# Measurements from patent publication US11903397B2, “Hay preservative and methods for preservation of hay” (DANSTAR FERMENT AG, priority 2014, dated 2024).
# Marks after values point to notes of the source that are not given here.
# Tests used:
# yeasts [1] = assay: Enumeration of yeasts on hay (Example 1)
# Method: (§1) Two trial bales were made to determine time to complete application of the additive on one bale, weight of the bale as well as a more accurate measure of moisture content of the baled material. Bale moisture was determined using a hay probe. […] The application rate of P. anomala was 10^11 CFU in 1 L per ton of hay. The enzyme having a chitinase activity was applied at a rate of 1.5 g (suspended in 1 L of water) per ton of hay, corresponding to about 6 U per ton of hay. […] The negative control was water, and was applied at a rate of 1 L per ton of hay. […] Five replicate bales were made for each treatment. Samples of the P. anomala were taken after each application to verify the viability and numbers of the organism. […]
# (§2) Chemical and microbiological analyses were conducted on hay samples collected from six different sections of the field and on composite core samples obtained from four different locations on each bale on day 1, 90, and 180 of storage. […] Dry matter (DM), organic matter (OM) and crude protein (CP) were determined according to AOAC (1990) procedures, and neutral detergent fibre (NDF), acid detergent fibre (ADF), and acid detergent insoluble nitrogen (ADIN) as described by Van Soest et al., (1991. Methods for dietary fiber, neutral detergent and non-starch polysaccharides in relation to animal nutrition. J. Dairy Sci. 74: 3583-3597.).
# total bacteria = assay: Microbial counts on alfalfa hay: total bacteria (Example 2)
# Source text: (§3) The application rate of the combination of P. anomala in combination with the enzyme having a chitinase activity was respectively 10^11 CFU and 1.5 g in 1 L of water per ton of hay. Accordingly, the application rate of the combination of P. pentosaceus in combination with the enzyme having a chitinase activity 10^11 CFU and 1.5 g in 1 L of water per ton of hay. […] The negative control was water, and was applied at a rate of 1 L per ton of hay. Five large round bales of about 800 kg were made in accordance with Example 1 for each treatment on the same day. Core samples from bales across all treatments were collected at day 0, 90 and 180 after baling to analyze their nutritional value, fermentation product and microbial changes.
# (§4) Core samples collected on day 0 and 90, 180 after baling were subjected to microbiological and chemical analysis. Microbiological analysis was conducted to enumerate, isolate and characterize the microorganisms (total bacteria, yeasts and moulds) on appropriate plates through serial dilution.
# [2] = In situ DM disappearance of hay in the rumen (Example 1); assay type: in vivo, Jersey cows; details: fitted equation, day 180 hay
# Method: (§5) In situ rate and extent of DM and NDF disappearance of the day 180 hay samples were determined in three cows fitted with ruminal cannulas and fed a standard feedlot backgrounding diet consisting of 50% timothy hay plus 50% barley silage (DM basis). Subsamples of the day 180 core samples obtained from bales treated with the same preservative were composited and ground to pass through a 4 mm screen. Approximately 4 g of each composite sample was weighed into Dacron bags and incubated in triplicate in each cow for 0, 2, 6, 12, 24, 48, 72, 96, and 120 h. Bags were made of monofilament polyester mesh (53 μm pore size, 5 cm×20 cm, Ankom, Fairport, New York). Cows were given two weeks to adapt to their diets before starting incubations. Immediately after incubation, bags were rinsed under cold tap water until all the rumen contents on the outside of the bags had been removed. Bags were washed in a domestic washing machine in cold water for three minutes using the delicate washing cycle without detergent and spin cycle. The washing procedure was repeated once. […] The residues from triplicate bags of the same treatment incubated in the same cow were pooled and ground to pass through a 1 mm screen before being analyzed for NDF as per the method stated above. Percentage disappearance of DM and NDF were calculated from the proportion remaining in the bags after each incubation time. […]
# [3] = In situ ruminal digestion parameters of alfalfa hay (Example 2); assay type: in vivo, cows; details: hay 180 days after baling
# Method: Core samples were collected on day 180 and evaluated for nutritional quality using in situ and in vitro methods.
# In situ experiments were conducted to assess the effect of hay preservatives on the rate and extent of digestion of hay samples collected 180 days after baling. Three cows fitted with ruminal cannulas and fed a standard feedlot backgrounding diet were used. Approximately 4 g of each composite sample from each bale (replicate) per treatment was weighed into Dacron bags and incubated in triplicate in each cow for 0, 2, 6, 12, 24, 48, 72, 96, and 120 h. Bags were retrieved after incubation and processed according to LRC SOP to determine in situ ruminal DM and NDF disappearance.
# [4] = Quality evaluation of hay (color, odor, grade) after 180 days (Example 1); design: key to GRADE (overall evaluation by examiner): VP: very poor; P: poor; A: average; G: good; VG: very good
# Source text: All bales were opened on day 180 and their quality assessed based on the Maryland Cooperative Extension Fact Sheet #644.
# Temperature stability of the bales was monitored by continuously measuring the interior temperature of each bale with three Dallas Thermochron iButtons (Embedded Data Systems, Lawrenceburg, KY) that were inserted in the core holes the following morning after baling. The iButtons were configured to record temperatures every hour during the first 60 days of the storage period. […] Bales were opened and visually scored for extent of spoilage and mold at the end of the storage period (180 d) based on the Maryland Cooperative Extension Fact Sheet #644 ‘Evaluating Hay Quality’ (http://www.extension.umd.edu/publications/pdfs/fs644. pdf).
# [5] = tested on: lactic acid producing bacteria (LAB); assay: Enumeration of lactic acid producing bacteria on hay (Example 1)
# Method: as §1, §2
# yeasts [6] = assay: Microbial counts on alfalfa hay: yeast (Example 2)
# Source text: as §3, §4
# molds = assay: Enumeration of molds on hay (Example 1)
# Method: as §1, §2
# [7] = In vitro digestibility and gas production of alfalfa hay in mixed rumen fluid (Example 2); design: species or system cows; details: 180 day hay
# Method: In vitro experiment was also conducted to assess the effect of microbial inoculants on gas production and kinetics from 180 day hay samples. Two runs by mixed rumen fluid from three cows fitted with ruminal cannulas and fed a standard feedlot backgrounding diet were conducted. Approximately 0.5 g of each composite sample of 180d hay per treatment was weighed into vial and incubated in triplicate in each run and gas were measured for 3, 6, 9, 12, 24 and 48 h. Vials were retrieved after incubation and processed according to LRC SOP to determine in vitro ruminal DM disappearance, gas production, ammonia and VFA.
# [8] = In situ NDF disappearance of hay in the rumen (Example 1); assay type: in vivo, Jersey cows; details: fitted equation; day 180 hay
# Method: as §5
# moulds = assay: Microbial counts on alfalfa hay: mold (Example 2)
# Source text: as §3, §4
# [9] = Temperature stability of alfalfa hay bales (Example 2, FIG. 2, FIG. 3)
# Source text: as §3
# Temperature of individual bales was monitored by continuously measuring the interior temperature throughout the storage period with three (3) Dallas Thermochron iButtons (Embedded Data Systems, Lawrenceburg, KY) inserted in the interior of each bale immediately after harvest (illustrated in pictures). The temperature was recorded at 4 hours intervals for 10 weeks.
# [10] = tested on: total bacteria (non-fastidious bacteria growing on nutrient agar); assay: Enumeration of total bacteria on hay (Example 1)
# Method: as §1, §2
# [11] = hay 90 days after treatment at baling
# [12] = hay 180 day post treatment at baling
# [13] = mean of bales, stored for 180 days
# [14] = day 0, unit printed only at total bacteria (log cfu/g DM)
smiles,measurement,setting,value
"CCC(=O)O [BPA, Propionic Acid]",YEAST,yeasts [1]; [11],5.38 cfu log10
same,YEAST,yeasts [1]; [12],4.67^b cfu log10
same,Total bacteria,total bacteria; day 0,6.34 log cfu/g DM
same,Total bacteria,total bacteria; day 90,8.49^a log cfu/g DM
same,Total bacteria,total bacteria; day 180,8.25^a log cfu/g DM
same,DM disappearance kinetics: c (fractional rate of disappearance of fraction b),[2],0.083^c h^−1
same,DM disappearance kinetics: c (fractional rate of disappearance of fraction b),[2]; listed as propionic acid,0.083 h⁻¹
same,a = the rapidly degradable fraction,[3],23.64^c
same,b = the slowly degradable fraction,[3],51.69^a
same,c = the rate at which b is degraded,[3],0.04^c /h
same,lag = lag time,[3],1.70^c h
same,hay quality by visual and sensory assessment (in words),[4]; bales opened on day 180,poorest quality
same,"COLOR score, Mean",[4]; [13],8.8 points
same,"ODOR score, Mean",[4]; [13],6.8 points
same,"OVERALL score, Mean",[4]; [13],15.6
same,GRADE (overall evaluation by examiner),"[4]; single bales (Bale # 1-5), stored for 180 days",P and VP
same,LAB (bacteria growing on MRS presumed to be Lactobacilli),[5]; [11],4.88^c cfu log10
same,MRS,[5]; [12],6.28 cfu log10
same,YEAST count,yeasts [6]; [14],5.49
same,YEAST count,yeasts [6]; day 90,6.22
same,YEAST count,yeasts [6]; day 180,4.89
same,MOLD,molds; [11],4.77 cfu log10
same,MOLD,molds; [12],6.24 cfu log10
same,c = Fractional gas production rate fermentation rate,[7],6.6^c mL h^−1
same,lag = lag time,[7],0.48^a h
same,NDF disappearance kinetics: Lag,[8],2.87^ab h
same,NDF disappearance kinetics: c (fractional rate of disappearance of fraction b),[8],0.069 h⁻¹
same,MOLD count,moulds; [14],4.66
same,MOLD count,moulds; day 90,5.91
same,average interior bale temperature (in words),"[9]; 60 day period post baling, FIG. 2",highest mean temperature over time
same,time spent above 40° C. (in words),"[9]; storage 2012, FIG. 3",longest time above 40 °C
same,TB (non-fastidious bacteria growing on nutrient agar),[10]; [11],6.10 cfu log10
same,NA,[10]; [12],7.23 cfu log10
